What was measured:
Assay in all cases: selective drug sensitivity score (sDSS, relative to normal bone marrow) (sDSS (score)); higher = more potent and effective on the cell line relative to normal bone marrow cells
Settings in all cases: 72 h
[1] = test system: TANOUE
[2] = test system: SEM cells
[3] = test system: KARPAS-45
[4] = test system: COG-LL-317
[5] = test system: SUP-B15
[6] = test system: PEER
[7] = test system: 697
[8] = test system: JURKAT
[9] = test system: NALM-6
[10] = test system: MOLT-16
[11] = test system: KASUMI-2
[12] = test system: ALL-PO
[13] = test system: COG-LL-332h
[14] = test system: ALL-SIL
[15] = test system: RCH-ACV
[16] = test system: MHH-CALL-4
[17] = test system: COG-LL-394h
[18] = test system: CCRF-HSB2
[19] = test system: MHH-CALL-2
[20] = test system: HAL-01
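Note: ALL cell lines in 384-well plates, five doses spanning 10,000-fold, each plate scaled between vehicle and 100 µmol/L benzalkonium chloride controls, sDSS an adapted area-under-curve metric.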

Row | SMILES | selective drug sensitivity score [1] | selective drug sensitivity score [2] | selective drug sensitivity score [3] | selective drug sensitivity score [4] | selective drug sensitivity score [5] | selective drug sensitivity score [6] | selective drug sensitivity score [7] | selective drug sensitivity score [8] | selective drug sensitivity score [9] | selective drug sensitivity score [10] | selective drug sensitivity score [11] | selective drug sensitivity score [12] | selective drug sensitivity score [13] | selective drug sensitivity score [14] | selective drug sensitivity score [15] | selective drug sensitivity score [16] | selective drug sensitivity score [17] | selective drug sensitivity score [18] | selective drug sensitivity score [19] | selective drug sensitivity score [20]
1 | CN(C)Cc1c(C(=O)NCCOc2ccc(C(=O)NO)cc2)oc2ccccc12 [Abexinostat] (top concentration 10000 nM) | -7.54 | 5.46 | 10.6 | 2.36 | 6.26 | 6.16 | 6.96 | 1.66 | 2.76 | 5.66 | 8.66 | 6.76 | 0.36 | 6.76 | 10.6 | 6.36 | 3.86 | 6.36 | 9.06 | -0.44
2 | C[C@@H]1CN(CC(=O)Nc2ccc3c(c2)Cc2cccc(-c4cc(=O)cc(N5CCOCC5)o4)c2S3)C[C@H](C)O1 (top concentration 25000 nM) | -2.18 | 2.22 | 1.72 | -1.78 | -0.58 | 2.62 | 0.42 | 0.92 | 2.92 | 0.32 | -2.08 | 2.02 | 2.02 | 3.32 | 8.12 | 0.12 | -0.68 | 0.42 | 0.92 | -0.18
3 | O=C(c1cccc(Cl)c1F)N1CCN(Cc2cccc(Nc3nccs3)n2)CC1 [MK-8745] (top concentration 10000 nM) | -0.8 | 18.3 | 23.8 | 12.9 | 18.3 | 9.8 | 8.9 | 9.8 | 9.6 | 12.2 | 6.8 | 9.9 | 14 | 11.8 | 9.7 | 4.5 | 5 | 14.1 | 12.2 | 7
4 | COc1ccc(-c2ccc3ncc4c(c3c2)n(-c2ccc(N3CCNCC3)c(C(F)(F)F)c2)c(=O)n4C)cn1 [NVP-BGT226] (top concentration 1000 nM) | -3.58 | 6.82 | 3.42 | 0.72 | 10.2 | 3.42 | 14.2 | 2.82 | 4.32 | 12.2 | 7.92 | 6.72 | 5.02 | 2.82 | 20.1 | 2.32 | -0.48 | 5.82 | 3.92 | 2.22
5 | Cc1[nH]c2ccccc2c1CCNCc1ccc(/C=C/C(=O)NO)cc1 [Panobinostat] (top concentration 1000 nM) | -6.56 | 3.94 | 10.7 | 6.34 | 10.2 | 4.34 | 7.64 | 1.04 | 4.14 | 9.04 | 14.3 | 6.14 | 3.64 | 6.04 | 14.1 | 4.94 | 2.84 | 5.24 | 8.44 | -3.26
6 | O=C(CCCCCCC(=O)Nc1ccccc1)NO [Vorinostat] (top concentration 10000 nM) | -2.6 | 11.3 | 9.9 | 8.2 | 11.9 | 9.7 | 10.1 | 3.6 | 2.3 | 15.5 | 17.6 | 10.1 | 3.4 | 7.5 | 16.5 | 3.9 | 1 | 4.8 | 8.7 | 0.8
7 | Cc1cc(Nc2cc(N3CCN(C)CC3)nc(/C=C/c3ccccc3)n2)n[nH]1 [ENMD-2076] (top concentration 10000 nM) | -9.16 | 15 | 5.14 | 5.14 | 4.74 | 7.14 | 9.54 | 3.64 | 5.44 | 7.04 | -4.76 | 10.3 | 4.34 | 8.94 | 8.84 | 0.34 | 1.44 | 9.74 | 5.44 | 5.54
8 | C=CC(=O)Nc1cc2c(Nc3ccc(F)c(Cl)c3)ncnc2cc1OCCCN1CCOCC1 [Canertinib] (top concentration 10000 nM) | -7.24 | 2.56 | -0.24 | 2.96 | 3.16 | 2.26 | 1.66 | -1.14 | -1.34 | 1.86 | 1.86 | 2.86 | 1.86 | 5.16 | 1.26 | 1.66 | 1.56 | 6.36 | 3.16 | 2.76
9 | Cn1ncnc1[C@H]1c2n[nH]c(=O)c3cc(F)cc(c23)N[C@@H]1c1ccc(F)cc1 [Talazoparib] (top concentration 1000 nM) | -4.92 | 0.78 | -2.12 | 19.7 | 20.1 | -3.72 | 15.8 | -0.22 | 3.78 | 19.1 | 13.2 | 4.78 | 6.58 | 3.48 | 10.7 | 10.2 | -0.62 | 7.68 | 9.48 | 6.58

Reference: the supplement of paper PMC8967900
